Measured values taken from US7169567B1, “Screening assay utilizing the PTH receptor” (The General Hospital Corporation, priority 1998, dated 2007).

What was measured:
[1] = molecular target: T1, intact rat PTH-1 receptor (rWT-HA) (Rattus norvegicus, UniProt P25961); assay: cAMP inhibition assay in COS-7 cells expressing rWT-HA; assay type: cell-based; details: antagonist 10 mM
T1 construct: expressed in transfected cells; host or cells: COS-7, transient (DEAE-dextran), pCDNA-1 based plasmid
T1 sequence (P25961 23-591 E93Y/N94P/K95Y/T99D/G100Y/S101A limits assumed): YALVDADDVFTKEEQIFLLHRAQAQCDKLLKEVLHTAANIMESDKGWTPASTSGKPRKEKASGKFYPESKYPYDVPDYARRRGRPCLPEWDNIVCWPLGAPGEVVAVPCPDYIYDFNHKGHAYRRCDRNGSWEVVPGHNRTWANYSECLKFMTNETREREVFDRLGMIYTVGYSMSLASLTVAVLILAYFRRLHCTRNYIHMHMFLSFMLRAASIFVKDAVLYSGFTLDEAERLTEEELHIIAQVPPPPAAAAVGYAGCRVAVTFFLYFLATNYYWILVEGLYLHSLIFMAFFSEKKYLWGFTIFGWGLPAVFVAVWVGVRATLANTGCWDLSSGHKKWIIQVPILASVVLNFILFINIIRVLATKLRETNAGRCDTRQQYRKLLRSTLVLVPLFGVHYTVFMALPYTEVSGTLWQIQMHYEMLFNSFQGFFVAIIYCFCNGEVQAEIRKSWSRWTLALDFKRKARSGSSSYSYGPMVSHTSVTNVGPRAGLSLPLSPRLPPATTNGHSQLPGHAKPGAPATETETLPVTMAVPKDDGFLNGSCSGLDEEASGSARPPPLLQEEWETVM
Protocol: (§1) FIG. 7. Antagonist Properties of PTHrP(7–34) with PTH(1–14). COS-7 cells transfected with rWT-HA (A) or rΔNt (B) were treated with the antagonist [Leu11,D-Trp12]hPTHrP(7–34)NH2 (or buffer alone), for 5 min at 22EC, followed by 10 ml of either rPTH(1–34) or rPTH(1–14) agonist peptide. Incubations were continued for 30 min at 21° C. and the resulting cAMP levels were measured by RIA, as described in Experimental Procedures. The final concentration of antagonist peptide present during the incubation was 10 mM. Shown are data from a single experiment performed in triplicate. A repeat of the same experiment yielded equivalent results.
For cAMP inhibition assays, transfected COS-7 cells were rinsed once with 500 ml of binding buffer, and 200 ml of IBMX buffer and 100 ml of binding buffer or binding buffer containing the antagonist [Leu11,D-Trp12]hPTHrP(7–34) NH2 (10 mM) were added. After a 5 minute incubation at room temperature, 10 ml of binding buffer containing PTH(1–14) or PTH(1–34) (agonist peptide) was added, and the incubation was continued for an additional 30 minutes. The cells were then lysed and intracellular cAMP levels were measured as described above. […]

[2] = molecular target: T2, truncated rat PTH-1 receptor (rΔNt) (Rattus norvegicus, UniProt P25961, E586G); assay: cAMP inhibition assay in COS-7 cells expressing rΔNt; assay type: cell-based
T2 construct: contains an open reading frame encoding a protein of about 435 amino acid residues; expressed in transfected cells; host or cells: COS-7, transient (DEAE-dextran), pCDNA-1 based plasmid
T2 sequence (P25961 with tags, fused parts or gaps E586G): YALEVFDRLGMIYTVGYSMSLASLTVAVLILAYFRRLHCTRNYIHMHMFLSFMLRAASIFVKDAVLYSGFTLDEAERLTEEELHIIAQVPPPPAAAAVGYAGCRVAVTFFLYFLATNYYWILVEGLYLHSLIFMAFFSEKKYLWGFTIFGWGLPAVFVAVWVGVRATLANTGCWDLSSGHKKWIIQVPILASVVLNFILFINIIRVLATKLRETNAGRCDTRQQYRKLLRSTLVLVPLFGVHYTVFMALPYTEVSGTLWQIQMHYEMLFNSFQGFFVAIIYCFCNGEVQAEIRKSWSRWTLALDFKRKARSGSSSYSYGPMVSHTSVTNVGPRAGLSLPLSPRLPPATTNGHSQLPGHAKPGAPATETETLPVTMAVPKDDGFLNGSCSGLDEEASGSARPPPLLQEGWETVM
Protocol: as §1
For cAMP inhibition assays, transfected COS-7 cells were rinsed once with 500 ml of binding buffer, and 200 ml of IBMX buffer and 100 ml of binding buffer or binding buffer containing the antagonist [Leu11,D-Trp12]hPTHrP(7–34) NH2 (10 mM) were added. After a 5 minute incubation at room temperature, 10 ml of binding buffer containing PTH(1–14) or PTH(1–34) (agonist peptide) was added, and the incubation was continued for an additional 30 minutes. The cells were then lysed and intracellular cAMP levels were measured as described above.
In order to determine whether [Leu11,D-Trp12]hPTHrP(7–34)NH2, a potent competitive antagonist of PTH(1–34) action (Nutt, R. F., et al., Endocrinology 127:491–493 (1990)), could block the ability of PTH(1–14) to stimulate cAMP formation in COS-7 cells expressing either rWT-HA or rΔNt (FIG. 6). With rWT-HA the inhibitor peptide reduced the efficacy of both PTH(1–14) and PTH(1–34) by as much as 70% as compared to the responses elicited by these agonists in the absence of inhibitor (FIG. 6A).

[3] = cells expressing rΔNt, antagonist 10 mM

[Leu^11,D-Trp^12]hPTHrP(7–34)NH2 [[Leu11,D-Trp12]hPTHrP(7–34)NH2]
reduction of efficacy of PTH(1–14) (cAMP) compared to response in absence of inhibitor ([1]; agonist PTH(1–14)): ≤ 70%
reduction of efficacy of PTH(1–34) (cAMP) compared to response in absence of inhibitor ([1]; agonist PTH(1–34)): ≤ 70%
effect on the ability of PTH(1–14) to stimulate cAMP production [2, 3]: little or no effect
effect on the ability of PTH(1–34) to stimulate cAMP production [2, 3]: little or no effect
function as an antagonist with rΔNt ([2]; rΔNt): inability
